# According to US20030045564A1, “Saururus chinensis extract for prevention and treatment of neurodegenerative disease” (priority 2000, published 2003):
# Assays:
# [1] = tested on: glutamate-insulted rat cortical cells; settings: previously patented neuroprotectant, comparison; cited from earlier work
# [2] = tested on: NO content released from glutamate-insulted rat cortical cells; assay: Measurement of nitric oxide (nitrite in culture broth, Griess reagent); type: cell-based; settings: for Nitrite / Nitrite post-treatment: post-treatment; for Nitrite: control 75.5, glutamate-treated 145.7; for Nitrite post-treatment / Nitrite pre-treatment: control 70.5, glutamate-treated 165.9
# Description: The content of nitrite isolated into culture broth from first cultured cortical cells was assayed by using Griess reagent by Dawson's method(Dawson V L, Brahbhatt H P, Mong J A and Dawson T M (1994) Expression of inducible nitric oxide synthase causes delayed neurotoxicity in primary neuronal-glial cortical cultures. Neuropharmacology 33: 1425-1430).
# [3] = tested on: glutamate-insulted rat cortical cells; assay: Neuroprotection against glutamate-induced neurotoxicity, cell viability by MTT assay in primary cultured cortical cells; type: cell-based; design: neuroprotective activity (in words): dose or concentration left out as unconfirmed
# Description: Primary cultures of mixed cortical cells containing both neuron and glia were prepared from fetal rats as described previously (Kim Y C, Kim S R, Markelonis G J and Oh T H (1998) Ginsenosides Rb1 and Rg3 protect cultured rat cortical cells from glutamate-induced neurodegeneration. J. Neurosci. Res. 53: 426-432).
# The cortical cells were plated onto collagen-coated dishes at a density of 1×10^6 cells/ml. The cultured cells were grown in DMEM supplemented with 10% heat-inactivated fetal calf serum, 1 mM sodium pyruvate, 100 IU/ml pecicillin and 100 μg/ml streptomycin at 37° C. in a humidified atmosphere of 95% air/5% CO2. cultures were allowed to mature for 2 weeks before being used for experiments.
# Total extract of S. chinensis, fraction and isolated materials were dissolved in DMSO(within final culture concentration, 0.1%) and diluted with distilled water and by passing the solution through Milliporemembrane(0.22 μm, Millex-GV, USA) to make sterile state. The solution was cultured by differentiating the concentration and dosed to neuron cells.
# To culture broth of the cortical cells during being cultured, MTT(5 mg/ml) was added by 10% of the culture broth. The broth was cultured for more 3 hours. The formed formazan was dissolved by DMSO and was assayed absorption at 540 nm((Mosmann T (1983) Rapid colorimetric assay for cellular growth and survival: Application to proliferation and cytotoxicity assays. J. Immuno. Methods 65: 55-61)
# The neuroprotective activity of these two aristolactam alkaloids against glutamate-induced toxicity was initially evaluated by a timed exposure to alkaloids before or after excitotoxic challenge. Some cultures were pretreated with alkaloids for one hr before a brief exposure (30 min) to glutamate, washed and maintained in DMEM for 24 hr in the absence of alkaloids (pre-treatment) (Table 3). Also, cultures were first exposed to glutamate for 30 min, washed and maintained in DMEM for 24 hr in the presence of alkaloids (post-treatment) (Table 4).
# Cortical cells directly isolated from rat fetal were cultured for 14 days. The samples to be tested were treated at different concentrations to cultured cells. After one hour, neurotoxicity was induced by treating 100 μM of glutamate. After 24 hours, the survival cell rate were measured by MTT assay to determine neuroprotective activity of the samples.
# Control is the value for primary cultures of rat cortical cells. Control value for MTT was 1.03±0.08 optical density (OD). Glutamate-treated is the value for primary cultures of rat cortical cells exposed to glutamate for 30 min. Glutamate-treated value for MTT was 0.58±0.02 OD.
# Viability is calculated as 100×(OD of sample treated−OD of Glutamate-treated)/(OD of control−OD of Glutamate-treated).
# GSH-px = assay: Effect on activity of antioxidant enzyme GSH-px; type: cell-based, rat; settings: data not shown
# catalase = assay: Effect on activity of antioxidant enzyme catalase; type: cell-based, rat; settings: data not shown
# SOD = assay: Effect on activity of antioxidant enzyme SOD; type: cell-based, rat; settings: data not shown
# [4] = tested on: peroxide content on glutamate-insulted rat cortical cells; assay: Cellular peroxide content in glutamate-injured cortical neurons; type: cell-based
# [5] = tested on: [Ca2+]i in glutamate-insulted rat cortical cells; assay: Measurement of Ca2+ concentration in cells (Fura-2 AM); type: cell-based; settings: for [Ca2+]i: pre-treatment, control 75.5, glutamate-treated 425.4
# [6] = both pre- and post-treatment paradigms
compound,measurement,setting,value
"COc1ccc(/C=C/C(=O)O)cc1 [E-p-MCA, (E)-p-methoxycinnamic acid]",protective activity by treatment paradigm (in words),[1],significant protective activity only in pre-treatment paradigm
"N=C(NCCC[C@H](N)C(=O)O)N[N+](=O)[O-] [N^ω-nitro-L-arginine, reference compound]",Nitrite,[2]; 1.0 μM,103.9 ± 3.5 nM
same,Nitrite,[2]; 10.0 μM,88.5 ± 4.1 nM
same,Nitrite,[2]; 100.0 μM,109.7 ± 1.9 nM
"COc1cc2c3c(cc4ccccc4c3c1OC)NC2=O [aristolactam BII, 10-amino-3,4-methoxy-3-hydroxy-phenanthrene-1-carboxylic acid lactam]",Nitrite,[2]; 0.1 μM,87.0 ± 0.8 nM
same,Nitrite,[2]; 1.0 μM,86.8 ± 2.2 nM
same,Nitrite,[2]; 10.0 μM,103.2 ± 1.2 nM
same,NO content in cultures treated with glutamate plus compound (in words),[2]; versus glutamate alone,increased only slightly
same,Neuroprotection (% protection against glutamate-induced neurotoxicity),"[3]; post-treatment (right after 30 min glutamate insult), 0.1 μM",58.5 ± 5.8 %
same,Neuroprotection (% protection against glutamate-induced neurotoxicity),"[3]; post-treatment (right after 30 min glutamate insult), 1.0 μM",68.4 ± 3.5 %
same,Neuroprotection (% protection against glutamate-induced neurotoxicity),"[3]; post-treatment (right after 30 min glutamate insult), 10.0 μM",47.8 ± 2.9 %
same,Neuroprotection (% protection against glutamate-induced neurotoxicity),"[3]; pre-treatment (1 hr prior to glutamate insult), 0.1 μM",0.0 ± 7.8%
same,Neuroprotection (% protection against glutamate-induced neurotoxicity),"[3]; pre-treatment (1 hr prior to glutamate insult), 1.0 μM",0.0 ± 3.2%
same,Neuroprotection (% protection against glutamate-induced neurotoxicity),"[3]; pre-treatment (1 hr prior to glutamate insult), 10.0 μM",32.2 ± 0.8 %
same,protection from glutamate-induced neurotoxicity (in words),[3]; pre-treatment paradigm,did not significantly protect
same,neuroprotective activity (in words),[3]; throughout treatment paradigm,significant neuroprotective activity
same,Neuroprotection (% protection against glutamate-induced neurotoxicity),"[3]; throughout treatment, 0.1 μM",no effect
same,Neuroprotection (% protection against glutamate-induced neurotoxicity),"[3]; throughout treatment, 1.0 μM",60.8 ± 2.1 %
same,Neuroprotection (% protection against glutamate-induced neurotoxicity),"[3]; throughout treatment, 10.0 μM",52.2 ± 3.2 %
same,protective effect on activity of GSH-px (in words),GSH-px,no significant protective effects
same,protective effect on activity of catalase (in words),catalase,no significant protective effects
same,protective effect on activity of SOD (in words),SOD,no significant protective effects
saurolactam-3-O-(E)-p-methoxycinnamate,block of NO synthesis (in words),[2]; [6],significantly block
same,Nitrite post-treatment,[2]; 0.1 μM,143.6 ± 5.7 nM
same,Nitrite post-treatment,[2]; 1.0 μM,97.5 ± 26.3 nM
same,Nitrite post-treatment,[2]; 10.0 μM,118.1 ± 2.1 nM
same,Nitrite pre-treatment,[2]; 0.1 μM,125.0 ± 6.8 nM
same,Nitrite pre-treatment,[2]; 1.0 μM,74.8 ± 6.5 nM
same,Nitrite pre-treatment,[2]; 10.0 μM,71.4 ± 2.1 nM
same,Neuroprotection (% protection against glutamate-induced neurotoxicity),"[3]; Table 6, pre-treatment, 0.1 μM",29.8 ± 8.2 %
same,Neuroprotection (% protection against glutamate-induced neurotoxicity),"[3]; Table 6, pre-treatment, 1.0 μM",67.2 ± 9.6 %
same,Neuroprotection (% protection against glutamate-induced neurotoxicity),"[3]; Table 6, pre-treatment, 10.0 μM",80.6 ± 9.5 %
same,Neuroprotection (% protection against glutamate-induced neurotoxicity),"[3]; Table 7, post-treatment, 0.1 μM",62.1 ± 1.8 %
same,Neuroprotection (% protection against glutamate-induced neurotoxicity),"[3]; Table 7, post-treatment, 1.0 μM",70.3 ± 3.2 %
same,Neuroprotection (% protection against glutamate-induced neurotoxicity),"[3]; Table 7, post-treatment, 10.0 μM",48.2 ± 1.5 %
same,neuroprotective activity on glutamate-induced neurotoxicity (in words),[3]; [6],significant neuroprotective activity
same,cellular peroxide level (in words),[4],reduced
same,block of increase of intracellular Ca2+ induced by excess glutamate (in words),[5],successfully block
same,[Ca2+]i,[5]; 0.1 μM,233.3 ± 14.9 nM
same,[Ca2+]i,[5]; 1.0 μM,145.8 ± 26.3 nM
same,[Ca2+]i,[5]; 10.0 μM,96.1 ± 4.1 nM
